In patent US12466841B2, “Substituted pyrrolo[3,4-c]pyridines as HPK1 antagonists” (Nimbus Saturn, Inc., priority 2021, dated 2025):

Each molecule was assayed against HPK1 (Homo sapiens (Human), UniProt Q92918) (assay: HPK1 biochemical enzyme assay (microfluidic mobility shift)). Settings: 1.5 nM HPK1, ATP 1 mM final, 60 min at RT, Caliper EZ Reader; read-out: HPK1 1000UMATP caliper IC50.
Experimental: HPK1 biochemical enzyme assay: HPK1 enzyme inhibition was measured using a microfluidic mobility shift assay. Reactions were performed in a 384-well plate, containing 1.5 nM HPK1 (Invitrogen), in assay buffer (Cana Biosciences; pH 7.4). Test compounds were titrated in ten point curves (top final assay concentration 3 μM), and preincubated with enzyme/substrate mix for 30 min prior to initiation of the reaction by addition of ATP (1 mM final concentration) and substrate (1 μM final concentration; Carna Biosciences) diluted in assay buffer supplemented by MgCl2 (final assay concentration of 5 mM). Following 60 min incubation at RT, the reaction was terminated by addition of 60 μl/well termination buffer (Carna Biosciences) and signal determination using a Caliper EZ Reader (Perkin Elmer, UK).
Compounds having an activity designated as “A” provided an IC50≤100 nM; compounds having an activity designated as “B” provided an IC50>100 nM.

HPK1, sequence (Q92918 whole entry): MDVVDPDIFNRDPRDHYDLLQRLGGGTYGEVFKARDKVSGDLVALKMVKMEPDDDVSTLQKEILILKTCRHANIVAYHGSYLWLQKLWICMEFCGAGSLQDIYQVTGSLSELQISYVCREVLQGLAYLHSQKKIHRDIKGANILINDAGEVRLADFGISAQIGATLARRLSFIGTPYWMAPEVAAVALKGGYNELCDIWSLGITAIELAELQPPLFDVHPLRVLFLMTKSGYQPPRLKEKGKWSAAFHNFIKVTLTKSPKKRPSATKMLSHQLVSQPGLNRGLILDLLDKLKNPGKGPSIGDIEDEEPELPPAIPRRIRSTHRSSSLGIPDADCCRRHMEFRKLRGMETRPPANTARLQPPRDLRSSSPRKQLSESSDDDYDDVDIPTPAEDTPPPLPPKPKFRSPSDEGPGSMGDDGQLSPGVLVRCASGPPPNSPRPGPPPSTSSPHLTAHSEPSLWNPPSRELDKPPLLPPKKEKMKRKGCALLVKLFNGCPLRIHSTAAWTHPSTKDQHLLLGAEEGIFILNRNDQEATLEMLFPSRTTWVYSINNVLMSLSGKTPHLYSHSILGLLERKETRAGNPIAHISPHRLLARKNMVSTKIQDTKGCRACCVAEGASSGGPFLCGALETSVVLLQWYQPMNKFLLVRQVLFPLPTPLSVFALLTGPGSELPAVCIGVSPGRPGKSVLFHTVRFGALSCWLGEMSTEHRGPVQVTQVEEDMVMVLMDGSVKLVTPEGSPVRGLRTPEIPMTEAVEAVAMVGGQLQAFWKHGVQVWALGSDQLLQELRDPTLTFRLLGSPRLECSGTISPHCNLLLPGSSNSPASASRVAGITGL

Molecule | IC50
4-((3-((dimethylamino)methyl)-4-(4-hydroxypiperidin-1-yl)phenyl)amino)-7-(1-methyl-1H-pyrrolo[2,3-b]pyridin-4-yl)-1,2-dihydro-3H-pyrrolo[3,4-c]pyridin-3-one [Compound I-21] | > 100 nM
CC(C)(O)[C@@H]1CCCN(c2ccc(Nc3ncc(-c4cnc5cc(F)ccn45)c4c3C(=O)NC4)cc2)C1 (single isomer, unassigned) [Compound I-4] | > 100 nM
CN(C)C[C@@H]1CN(c2ccc(Nc3ncc(-c4ccnc5c4ccn5C)c4c3C(=O)NC4)cc2)CCO1 (single isomer, unassigned) [Compound I-17] | ≤ 100 nM
CN(C)C[C@H]1CN(c2ccc(Nc3ncc(-c4ccnc5c4ccn5C)c4c3C(=O)NC4)cc2)CCO1 (single isomer, unassigned) [Compound I-18] | ≤ 100 nM
CN1CCN(c2ccc(Nc3ncc(-c4ccncc4)c4c3C(=O)NC4)cc2)CC1 [Compound I-5, 4-((4-(4-methylpiperazin-1-yl)phenyl)amino)-7-(pyridin-4-yl)-1,2-dihydro-3H-pyrrolo[3,4-c]pyridin-3-one] | > 100 nM
CN(C)Cc1cc(Nc2ncc(-c3cnc4cc(F)ccn34)c3c2C(=O)NC3)ccc1C1CCOCC1 [Compound I-6, 4-((3-((dimethylamino)methyl)-4-(tetrahydro-2H-pyran-4-yl)phenyl)amino)-7-(7-fluoroimidazo[1,2-a]pyridin-3-yl)-1,2-dihydro-3H-pyrrolo[3,4-c]pyridin-3-one] | ≤ 100 nM
CN(C)Cc1cc(Nc2ncc(-c3ccnc4c3ccn4C)c3c2C(=O)NC3)ccc1N1CCOCC1 [Compound I-7, 4-((3-((dimethylamino)methyl)-4-morpholinophenyl)amino)-7-(1-methyl-1H-pyrrolo[2,3-b]pyridin-4-yl)-1,2-dihydro-3H-pyrrolo[3,4-c]pyridin-3-one] | ≤ 100 nM
Cn1ccc2c(-c3cnc(Nc4ccc(N5CCC(O)CC5)cc4)c4c3CNC4=O)ccnc21 [Compound I-8, 4-((4-(4-hydroxypiperidin-1-yl)phenyl)amino)-7-(1-methyl-1H-pyrrolo[2,3-b]pyridin-4-yl)-1,2-dihydro-3H-pyrrolo[3,4-c]pyridin-3-one] | ≤ 100 nM
Cn1ccc2c(-c3cnc(Nc4ccc(S(C)(=O)=O)cc4)c4c3CNC4=O)ccnc21 [Compound I-9, 7-(1-methyl-1H-pyrrolo[2,3-b]pyridin-4-yl)-4-((4-(methylsulfonyl)phenyl)amino)-1,2-dihydro-3H-pyrrolo[3,4-c]pyridin-3-one] | > 100 nM
Cn1ccc2c(-c3cnc(Nc4ccc(N5CCC(O)CC5)cn4)c4c3CNC4=O)ccnc21 [Compound I-10, 4-((5-(4-hydroxypiperidin-1-yl)pyridin-2-yl)amino)-7-(1-methyl-1H-pyrrolo[2,3-b]pyridin-4-yl)-1,2-dihydro-3H-pyrrolo[3,4-c]pyridin-3-one] | > 100 nM
Cn1ccc2c(-c3cnc(Nc4ccc(N5CCC[C@H](C(C)(C)O)C5)cc4)c4c3CNC4=O)ccnc21 [Compound I-11, (S)-4-((4-(3-(2-hydroxypropan-2-yl)piperidin-1-yl)phenyl)amino)-7-(1-methyl-1H-pyrrolo[2,3-b]pyridin-4-yl)-1,2-dihydro-3H-pyrrolo[3,4-c]pyridin-3-one] | ≤ 100 nM
Cc1ccc2c(-c3cnc(Nc4ccc(N5CCC(O)CC5)cc4)c4c3CNC4=O)cnn2c1 [Compound I-13, 4-((4-(4-hydroxypiperidin-1-yl)phenyl)amino)-7-(6-methylpyrazolo[1,5-a]pyridin-3-yl)-1,2-dihydro-3H-pyrrolo[3,4-c]pyridin-3-one] | ≤ 100 nM
CN(C)Cc1cc(Nc2ncc(-c3cnc4cc(F)ccn34)c3c2C(=O)NC3)ccc1[C@H]1CCOC1 [Compound I-19, (R)-4-((3-((dimethylamino)methyl)-4-(tetrahydrofuran-3-yl)phenyl)amino)-7-(7-fluoroimidazo[1,2-a]pyridin-3-yl)-1,2-dihydro-3H-pyrrolo[3,4-c]pyridin-3-one] | ≤ 100 nM
COCC1(O)CCN(c2ccc(Nc3ncc(-c4cnc5cc(F)ccn45)c4c3C(=O)NC4)cc2CN(C)C)CC1 [Compound I-22, 4-((3-((dimethylamino)methyl)-4-(4-hydroxy-4-(methoxymethyl)piperidin-1-yl)phenyl)amino)-7-(7-fluoroimidazo[1,2-a]pyridin-3-yl)-1,2-dihydro-3H-pyrrolo[3,4-c]pyridin-3-one] | > 100 nM
CNC1CCN(c2ccc(Nc3ncc(-c4ccncc4)c4c3C(=O)NC4)cc2)CC1 [Compound I-23, 4-((4-(4-(methylamino)piperidin-1-yl)phenyl)amino)-7-(pyridin-4-yl)-1,2-dihydro-3H-pyrrolo[3,4-c]pyridin-3-one] | > 100 nM
Cn1cncc1-c1cnc(Nc2ccc(N3CCC[C@H](C(C)(C)O)C3)cc2)c2c1CNC2=O [Compound I-24, (S)-4-((4-(3-(2-hydroxypropan-2-yl)piperidin-1-yl)phenyl)amino)-7-(1-methyl-1H-imidazol-5-yl)-1,2-dihydro-3H-pyrrolo[3,4-c]pyridin-3-one] | ≤ 100 nM
Cn1cncc1-c1cnc(Nc2ccc(N3CCC[C@@H](C(C)(C)O)C3)cc2)c2c1CNC2=O [Compound I-25, (R)-4-((4-(3-(2-hydroxypropan-2-yl)piperidin-1-yl)phenyl)amino)-7-(1-methyl-1H-imidazol-5-yl)-1,2-dihydro-3H-pyrrolo[3,4-c]pyridin-3-one] | > 100 nM
CC(C)(O)C1CN(c2ccc(Nc3ncc(-c4ccncc4)c4c3C(=O)NC4)cc2)CCO1 (centres unmarked) [Compound I-27, 4-((4-(2-(2-hydroxypropan-2-yl)morpholino)phenyl)amino)-7-(pyridin-4-yl)-1,2-dihydro-3H-pyrrolo[3,4-c]pyridin-3-one] | > 100 nM

Further lines, results first:

IC50 | Molecule
> 100 nM | Cn1ccc2c(-c3cnc(Nc4ccc(N5CCC(O)CC5)nc4)c4c3CNC4=O)ccnc21 [Compound I-1, 4-((6-(4-hydroxypiperidin-1-yl)pyridin-3-yl)amino)-7-(1-methyl-1H-pyrrolo[2,3-b]pyridin-4-yl)-1,2-dihydro-3H-pyrrolo[3,4-c]pyridin-3-one]
≤ 100 nM | Cn1ccc2c(-c3cnc(Nc4ccc(N5CCC[C@@H](C(C)(C)O)C5)cc4)c4c3CNC4=O)ccnc21 [Compound I-12, (R)-4-((4-(3-(2-hydroxypropan-2-yl)piperidin-1-yl)phenyl)amino)-7-(1-methyl-1H-pyrrolo[2,3-b]pyridin-4-yl)-1,2-dihydro-3H-pyrrolo[3,4-c]pyridin-3-one]
> 100 nM | O=C1NCc2c(-c3cnc4cc(F)ccn34)cnc(Nc3ccc(N4CCC(O)CC4)cc3)c21 [Compound I-14, 7-(7-fluoroimidazo[1,2-a]pyridin-3-yl)-4-((4-(4-hydroxypiperidin-1-yl)phenyl)amino)-1,2-dihydro-3H-pyrrolo[3,4-c]pyridin-3-one]
> 100 nM | CN1CCN(c2ccc(Nc3ncc(-c4cnc5cc(F)ccn45)c4c3C(=O)NC4)cc2)CC1 [Compound I-15, 7-(7-fluoroimidazo[1,2-a]pyridin-3-yl)-4-((4-(4-methylpiperazin-1-yl)phenyl)amino)-1,2-dihydro-3H-pyrrolo[3,4-c]pyridin-3-one]
≤ 100 nM | CC(C)(O)C1CN(c2ccc(Nc3ncc(-c4cnc5cc(F)ccn45)c4c3C(=O)NC4)cc2)CCO1 (centres unmarked) [Compound I-16, 7-(7-fluoroimidazo[1,2-a]pyridin-3-yl)-4-((4-(2-(2-hydroxypropan-2-yl)morpholino)phenyl)amino)-1,2-dihydro-3H-pyrrolo[3,4-c]pyridin-3-one]
> 100 nM | CN(C)Cc1cc(Nc2ncc(-c3cnc4cc(F)ccn34)c3c2C(=O)NC3)ccc1[C@@H]1CCOC1 [Compound I-20, (S)-4-((3-((dimethylamino)methyl)-4-(tetrahydrofuran-3-yl)phenyl)amino)-7-(7-fluoroimidazo[1,2-a]pyridin-3-yl)-1,2-dihydro-3H-pyrrolo[3,4-c]pyridin-3-one]
> 100 nM | Cn1cncc1-c1cnc(Nc2ccc(N3CCNCC3)cc2)c2c1CNC2=O [Compound I-26, 7-(1-methyl-1H-imidazol-5-yl)-4-((4-(piperazin-1-yl)phenyl)amino)-1,2-dihydro-3H-pyrrolo[3,4-c]pyridin-3-one]
> 100 nM | CC(C)(O)[C@H]1CN(c2ccc(Nc3ncc(-c4ccncc4)c4c3C(=O)NC4)cc2)CCO1 [Compound I-28, (R)-4-((4-(2-(2-hydroxypropan-2-yl)morpholino)phenyl)amino)-7-(pyridin-4-yl)-1,2-dihydro-3H-pyrrolo[3,4-c]pyridin-3-one]
